{
  "source": "patent US20250281449A1",
  "about": "“NITROGEN-CONTAINING ANALOGS OF SALINOMYCIN FOR USE IN MULTIPLE MYELOMA (MM)” (Centre National de la Recherche Scientifique, priority 2021, published 2025)",
  "key": {"[1]": {"test_system": "MMSET (isoforms I and II)", "assay": "Western blot of MMSET protein level", "format": "cell-based, human", "conditions": "MM cell lines with t(4; 14) translocation, 24H", "protocol": "Cells were treated with iron chelators (80 μM Deferasirox), and Ironomycin (IC50 and 200 nM) during 24H. Protein levels of MMSET (isoforms I and II), MYC, H3K36me3 and H3K27me3 were analyzed by western blot. MMSET (isoforms I and II) and MYC signal were normalized by α-tubulin protein level, H3K36me3 and H3K27me3 signal were normalized by total histone 3 protein level.\n(§1) The total cell lysates were obtained with RIPA 1× lysis buffer (#9806, Cell Signaling®) according with the supplier recommendations.\n(§2) Protein lysates migrate on 10% polyacrylamide gel (NP-0301, Novex, Life Technologies®), in MOPS 1× running buffer (NP0001, Novex, Life Technologies®) or MES 1× running buffer NP-0002, Novex, Life Technologies®) and proteins are transferred to nitrocellulose membrane (1B301001, I-Blot Transfert Starck, NuPAGE, Life Technologies®). The primary antibodies mouse-anti-phospho-Histone H2A.X (Ser139) clone JBW301 ( 1/1000, Merck Millipore), anti-H3K36me3 (#ab9050, abcam®), anti-H3K27me3 (#9733, Cell Signaling®), anti-MMSET (#65127, Cell Signaling® et ab75359, abcam), anti-MYC (#5605, Cell Signaling®) were incubated in TBS-Tween 20 0.1% (Tris-Buffered Saline, pH 7.4) with 5% non-fat milk or Bovine serum albumin (Sigma-Aldrich, A7906). […] Quantification of protein levels was performed with Image J® software (National Institutes of Health, Bethesda, MD, USA)."}, "[2]": {"test_system": "Phospho-H2A.X (S139)", "assay": "DNA damage response, Phospho-H2A.X (S139) western blot", "format": "cell-based, human", "conditions": "IC50 and 200 nM, 24H", "protocol": "Cells were treated with iron chelators (80 μM Deferasirox), and Ironomycin (IC50 and 200 nM) during 24H. Protein levels of Phospho-H2A.X (S139) were analyzed by western blot and normalized by the histone 3 protein level.\nas §1\nas §2, with “A7906). Protein levels are objectified by labeling with an anti-α-tubulin mouse monoclonal antibody (Sigma, T9026, St Louis, MO, USA 1/1000) or anti-Histone 3 (ab18521, abcam).” for “A7906).”"}, "[3]": {"test_system": "XG21", "assay": "Cell viability assay (Cell Titer-Glo), HMCL", "format": "cell-based", "conditions": "Homo sapiens; XG21 HMCL, 96H; read-out: IC50", "protocol": "(§3) The panel of 17 HMCL cell lines were incubated with increasing concentrations of Ironomycin (A), AM23 (B) or vehicle for 96H.\n(§4) HMCL cell lines were cultured for 4 days in 96-well flat-bottom microtiter plates in RPMI 1640 medium or DMEM medium, 10% or 20% FCS (control medium) in the presence of various compounds. The number of viable cells in culture was determined using the Cell Titer-Glo Luminescent Cell Viability Assay from Promega, Madison, WI, USA using a Centro LB 960 luminometer (Berthold Technologies, Bad Wildbad, Germany).\n(§5) This test is based on quantitation of the intracellular ATP present, which signals the presence of metabolically active cells. Data are expressed as the mean percentage of six replicates, normalized to the untreated control."}, "[4]": {"test_system": "OPM-2", "assay": "Cell viability assay (Cell Titer-Glo), HMCL", "format": "cell-based", "conditions": "Homo sapiens; OPM-2 HMCL, 96H; read-out: IC50", "protocol": "as §3, §4, §5"}, "[5]": {"test_system": "L363", "assay": "Cell viability assay (Cell Titer-Glo), HMCL", "format": "cell-based", "conditions": "Homo sapiens, L-363, 96H", "protocol": "as §3, §4, §5"}, "[6]": {"test_system": "AMO-1", "assay": "Cell viability assay (Cell Titer-Glo), HMCL", "format": "cell-based", "conditions": "Homo sapiens, AMO1; AMO-1 HMCL, 96H", "protocol": "as §3, §4, §5"}, "[7]": {"test_system": "XG20", "assay": "Cell viability assay (Cell Titer-Glo), HMCL", "format": "cell-based", "conditions": "Homo sapiens; XG20 HMCL, 96H; read-out: IC50", "protocol": "as §3, §4, §5"}, "[8]": {"test_system": "MOLP-8", "assay": "Cell viability assay (Cell Titer-Glo), HMCL", "format": "cell-based", "conditions": "Homo sapiens; MOLP-8 HMCL, 96H; read-out: IC50", "protocol": "as §3, §4, §5"}, "[9]": {"test_system": "XG28", "assay": "Cell viability assay (Cell Titer-Glo), HMCL", "format": "cell-based", "conditions": "Homo sapiens; XG28 HMCL, 96H; read-out: IC50", "protocol": "as §3, §4, §5"}, "[10]": {"test_system": "XG11", "assay": "Cell viability assay (Cell Titer-Glo), HMCL", "format": "cell-based", "conditions": "Homo sapiens, 96H", "protocol": "as §3, §4, §5"}, "[11]": {"test_system": "XG12", "assay": "Cell viability assay (Cell Titer-Glo), HMCL", "format": "cell-based", "conditions": "Homo sapiens; XG12 HMCL, 96H; read-out: IC50", "protocol": "as §3, §4, §5"}, "[12]": {"test_system": "XG-7 and OPM-2 cell line", "assay": "Apoptosis with iron supplementation (FeCl3), Annexin V-PE", "format": "cell-based, human", "conditions": "80 μM deferasirox or 100 nM Ironomycin, 4 hours then 72H with FeCl3 100 μM", "protocol": "XG-7 and OPM-2 cell line was pre-incubated with or without 80 μM of deferasirox or 100 nM of Ironomycin, for 4 hours followed by 72H incubation in presence or absence of FeCl3 (100 μM). Apoptosis was assessed using Annexin V-PE staining by flow cytometry.\nAnnexin V-PE staining for apoptosis analysis was performed using the “PE Annexin V Apoptosis Detection Kit I” (559763, Becton Dickinson)."}, "[13]": {"test_system": "primary MM cells", "assay": "Assay on primary MM cells of patients (flow cytometry)", "format": "cell-based, human", "conditions": "n=5, with IL-6", "protocol": "Primary MM cells were treated with Ironomycin (A) or AM-23 (B) and incubated during 96H with IL-6. The toxicity on MM cells and non-MM cells was analyzed by flow cytometry and expressed in % of control.\nBone marrow samples were collected after patients' written informed consent in accordance with the Declaration of Helsinki and institutional research board approval from Montpellier University hospital. Cells are obtained from […] of 5 patients with MM. Cells are obtained by density gradient separation and qualified by Flow cytometry.\nCells are cultured in Gibco® RPMI-1640 (Glutamax) medium (#6187-010) with 10% FBS at a density of 0.5×10^6 Cell/mL with 2 ng/mL of interleukin-6. Cells are seeded 24H after thawing and treated with various compounds during 72H.\nTotal cells were counted with trypan blue and stained with the panel CD38-APC, CD138-PE (Beckman coulter) and analyzed by flow cytometry (Fortessa cytometer, BD Pharmigen). Tumorous MM cells were gated on CD38+ and CD138+."}},
  "data": [
    {"smiles": "C#CCN[C@@H]1C=C[C@]2(O[C@H]([C@@H](CC)C(=O)[C@@H](C)[C@@H](O)[C@H](C)[C@@H]3O[C@@H]([C@@H](CC)C(=O)O)CC[C@@H]3C)[C@@H](C)C[C@H]2C)O[C@@]12CC[C@@](C)([C@H]1CC[C@](O)(CC)[C@H](C)O1)O2", "note": "[Ironomycin]", "values": [
      {"measurement": "expression of MMSET", "setting": "[1]", "value": "downregulates the expression of MMSET"},
      {"measurement": "DNA double strand breaks", "setting": "[2]", "value": "DNA double strand breaks"},
      {"measurement": "IC50", "setting": "[3]", "value": 156, "unit": "nM"},
      {"measurement": "IC50", "setting": "[4]", "value": 36, "unit": "nM"},
      {"measurement": "IC50", "setting": "[5]", "value": 13, "unit": "nM"},
      {"measurement": "IC50", "setting": "[6]", "value": 57, "unit": "nM"},
      {"measurement": "IC50", "setting": "[7]", "value": 444, "unit": "nM"},
      {"measurement": "IC50", "setting": "[8]", "value": 64.7, "unit": "nM"},
      {"measurement": "IC50", "setting": "[9]", "value": 31, "unit": "nM"},
      {"measurement": "IC50", "setting": "[10]", "value": 51, "unit": "nM"},
      {"measurement": "IC50", "setting": "[11]", "value": 30, "unit": "nM"},
      {"measurement": "effect of iron supplementation on induced apoptosis", "setting": "[12]", "value": "not reversed by Iron supplementation"},
      {"measurement": "effect of iron supplementation on induced apoptosis", "setting": "[12]; listed as ironomycin", "value": "did not affect"},
      {"measurement": "toxicity on primary MM cells of patients", "setting": "[13]", "value": "validated the therapeutic interest"}
    ]}
  ]
}
